Drawing on BindingDB's records for doi:10.1016/j.bioorg.2016.09.004 (North-West University, 2016), this text covers IC50 for 14 compounds.

By IC50 is commonly meant the midpoint of a concentration-inhibition curve. Read a high IC50 as weaker potency in that assay.

In experiment [1] the target is T1, Amine oxidase [flavin-containing] B (Homo sapiens, UniProt P27338).
T1 sequence (P27338 whole entry): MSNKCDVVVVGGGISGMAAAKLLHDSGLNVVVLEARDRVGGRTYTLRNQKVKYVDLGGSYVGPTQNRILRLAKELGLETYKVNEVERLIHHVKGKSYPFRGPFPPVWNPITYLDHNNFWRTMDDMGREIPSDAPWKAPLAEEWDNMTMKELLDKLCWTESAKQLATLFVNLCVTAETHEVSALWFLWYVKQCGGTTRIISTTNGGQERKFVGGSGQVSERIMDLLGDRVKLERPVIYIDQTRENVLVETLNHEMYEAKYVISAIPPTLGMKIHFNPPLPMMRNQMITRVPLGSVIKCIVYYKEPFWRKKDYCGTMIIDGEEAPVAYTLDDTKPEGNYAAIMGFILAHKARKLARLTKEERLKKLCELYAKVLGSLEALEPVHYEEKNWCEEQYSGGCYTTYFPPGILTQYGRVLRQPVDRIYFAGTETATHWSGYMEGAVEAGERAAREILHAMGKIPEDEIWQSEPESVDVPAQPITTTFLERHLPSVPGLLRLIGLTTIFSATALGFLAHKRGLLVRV
In words: MAO-A and MAO-B Fluorescence Assay. The note with it: pH 7.4. The protocol: (§1) Recombinant human MAO-A and MAO-B were used for these studies and kynuramine served as enzyme substrate. Kynuramine is oxidised by both MAO isoforms to yield 4-hydroxyquinoline as ultimate product. For the enzyme reactions MAO-A (0.0075 mg/mL) or MAO-B (0.015 mg/mL), the substrate (50 μM) and the test inhibitors (0.003-100 μM) were combined and incubated for 20 min. For this purpose potassium phosphate buffer (pH 7.4, 100 mM) served as solvent. At endpoint the reactions were alkalinised (NaOH) and the fluorescence intensity of 4-hydroxyquinoline was measured (kex = 310 nm; kem = 400 nm).

Experiment [2] addresses T2, Amine oxidase [flavin-containing] A (Homo sapiens, UniProt P21397).
T2 sequence (P21397 whole entry): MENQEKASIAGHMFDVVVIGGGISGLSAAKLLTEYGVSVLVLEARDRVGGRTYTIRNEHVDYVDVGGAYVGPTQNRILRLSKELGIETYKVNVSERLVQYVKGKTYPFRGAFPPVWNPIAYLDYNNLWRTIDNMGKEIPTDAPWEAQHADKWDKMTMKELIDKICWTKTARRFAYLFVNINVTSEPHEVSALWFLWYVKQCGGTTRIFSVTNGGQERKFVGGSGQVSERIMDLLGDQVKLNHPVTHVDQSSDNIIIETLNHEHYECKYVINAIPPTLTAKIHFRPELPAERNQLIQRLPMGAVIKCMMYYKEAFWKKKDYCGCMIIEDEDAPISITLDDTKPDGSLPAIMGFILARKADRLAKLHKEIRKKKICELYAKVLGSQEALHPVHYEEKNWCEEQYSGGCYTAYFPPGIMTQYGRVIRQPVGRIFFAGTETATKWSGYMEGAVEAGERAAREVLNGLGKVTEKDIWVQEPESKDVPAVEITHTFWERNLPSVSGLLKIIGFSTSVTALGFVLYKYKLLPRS
Kind of experiment: MAO-A and MAO-B Fluorescence Assay. As to conditions: pH 7.4. The protocol: as §1

As for `COc1ccc2c(c1)C/C(=C\c1ccccn1)C2=O` [(2E)-5-Methoxy-2-(pyridin-2-ylmethylidene)-2,3-dihydro-1Hinden-1-one (11d)], the results for the IC50 in experiment [1] and in experiment [2] were 112 nM and 302 nM, respectively.

In the case of `O=C1/C(=C/c2cccnc2Cl)Cc2ccccc21` [(2E)-2-[(2-Chloropyridin-3-yl)methylidene]-2,3-dihydro-1Hinden-1-one (11e)], the IC50 in experiment [1] came to 465 nM; in experiment [2] it was 471 nM.

In turn, `COc1ccc2c(c1)C/C(=C\C1CCCCC1)C2=O` [(2E)-2-(Cyclohexylmethylidene)-5-methoxy-2,3-dihydro-1Hinden-1-one (11m)] returned an IC50 in experiment [1] of 139 nM.

In the case of `O=C1/C(=C/c2cccnc2)Cc2ccccc21` [(2E)-2-(Pyridin-3-ylmethylidene)-2,3-dihydro-1H-inden-1-one (11a)], the IC50 amounted to 1270 nM in experiment [1] and 61 nM in experiment [2].

Consider `COc1ccc2c(c1)C/C(=C\c1ccc(Br)o1)C2=O` [(2E)-2-[(5-Bromofuran-2-yl)methylidene]-5-methoxy-2,3-dihydro-1H-inden-1-one (11o)], for which the values for the IC50 in experiment [1] and in experiment [2] were 4.4 nM and 183 nM, respectively.

For the compound `COc1ccc2c(c1)C/C(=C\c1ccco1)C2=O` [(2E)-2-(Furan-2-ylmethylidene)-5-methoxy-2,3-dihydro-1Hinden-1-one (11g)], the IC50 in experiment [1] was found to be 394 nM; in experiment [2], 2330 nM.

Consider `COc1ccc2c(c1)C/C(=C\c1ccc(C)o1)C2=O` [(2E)-5-Methoxy-2-[(5-methylfuran-2-yl)methylidene]-2,3-dihydro-1H-inden-1-one (11n)], for which the IC50 was 26 nM in experiment [1] and 4730 nM in experiment [2].

For `O=C1/C(=C/c2ccco2)Cc2ccccc21`, the results for the IC50 in experiment [1] and in experiment [2] were 889 nM and 1200 nM, respectively.

Consider `O=C1/C(=C/c2cccs2)Cc2ccccc21` [(2E)-2-(Thiophen-2-ylmethylidene)-2,3-dihydro-1H-inden-1-one (11h)], for which the IC50 in experiment [1] came out at 418 nM; in experiment [2], 1330 nM.

Take `O=C1/C(=C/c2ccsc2)Cc2ccccc21` [(2E)-2-(Thiophen-3-ylmethylidene)-2,3-dihydro-1H-inden-1-one (11k)]: the IC50 in experiment [1] is 114 nM; in experiment [2] it was 1510 nM.

Turning to `O=C1/C(=C/c2ccccn2)Cc2ccccc21` [(2E)-2-(Pyridin-2-ylmethylidene)-2,3-dihydro-1H-inden-1-one (11c)], the IC50 is 1530 nM in experiment [1] and 853 nM in experiment [2].

`COc1ccc2c(c1)C/C(=C\c1cccnc1)C2=O` [(2E)-5-Methoxy-2-(pyridin-3-ylmethylidene)-2,3-dihydro-1Hinden-1-one (11b)]: the IC50 in experiment [1] is 338 nM; in experiment [2] it was 8550 nM.

`O=C1/C(=C/C2CCCCC2)Cc2ccccc21` [(2E)-2-(Cyclohexylmethylidene)-2,3-dihydro-1H-inden-1-one (11l)]: the results for the IC50 in experiment [1] and in experiment [2] were 229 nM and 5210 nM, respectively.

In the case of `COc1ccc2c(c1)C/C(=C\c1cccs1)C2=O` [(2E)-5-Methoxy-2-(thiophen-2-ylmethylidene)-2,3-dihydro-1H-inden-1-one (11i)], the IC50 in experiment [1] was 114 nM; in experiment [2], 5180 nM.
